Experimental data from US7795220B2, “Conformationally constrained parathyroid hormones with alpha-helix stabilizers” (The General Hospital Corporation, priority 2003, dated 2010).
Where “and” joins values, the source holds several entries; their conditions need not be identical. Identical values can stand only once. Like-named read-outs stand apart in the source and are kept apart here. Non-standard residues stand in square brackets, D forms with d. Residues, ends and D or L forms follow the SMILES beside them. No end group written: not given here. hArg = N=C(N)NCCCC[C@H](N)C(=O)O; Ac5c = NC1(C(=O)O)CCCC1; Deg = CCC(N)(CC)C(=O)O; Ac3c = NC1(C(=O)O)CC1; Aib = CC(C)(N)C(=O)O

What was measured:
[1] = molecular target: T1, P1R (recombinant P1R chimera) in HKRK-B28 cells (UniProt P25107+P25961, A364S/A509S/A517P/A524T/DEL519-521/E344G/G506A/H528S/I365V/I416T/I429T/K402R/K465R/L320I/M408V/N352H/S511P/S523T/T335G/T421L/T487S/V367L/V433I); experiment: biochemical; assay type: binding, opposum/rat chimera; conditions: for IC50: apparent binding affinity (IC50), inhibition of 125I-rPTH(1-21) analog tracer binding, B28 cells
T1 construct: the opposum P1R from the N-terminus to the mid region of TM3; the rat P1R from the mid region of TM3 to the C-terminus; expressed in transfected cells
Text: (§1) Cell Culture. The cell line HKRK-B28 (Takasu, H., et al., J. Bone Miner. Res. 14:11-20 (1999)) was derived from the porcine kidney cell line, LLC-PK1 by stable transfection with plasmid DNA encoding a recombinant P1R chimera comprised of the opposum P1R from the N-terminus to the mid region of TM3 and the rat P1R from the mid region of TM3 to the C-terminus. The surface density of the P1R in these cells is ˜280,000 receptors per cell. The clonal cell line LdelNt-2 was derived from LLC-PK, cells via stable transfection with a plasmid encoding P1R-delNt, a recombinant human PTH-1 receptor construct in which most of the amino-terminal extracellular domain is deleted. These cells, as well as COS-7 cells and SaOS-2-B10 cells, were cultured at […] in T-75 flasks ([…]) in Dulbecco's modified Eagle's medium (DMEM) supplemented with fetal bovine serum (10%), penicillin G (20 units/ml), streptomycin sulfate (20 μg/ml) and amphotericin B (0.05 μg/ml) in a humidified atmosphere containing 5% CO2. Stock solutions of EGTA/trypsin and antibiotics were from GLBCO; fetal bovine serum was from Hyclone Laboratories (Logan, Utah). COS-7 cells sub-cultured in 24-well plates were transfected with plasmid DNA (200 ng per well) encoding the wild-type human P1R or truncated human P1R deleted for residues (24-181) (Shimizu, M., et al., J. Biol. Chem. 275:21836-21843 (2000)) that was purified by cesium chloride/ethidium bromide density gradient centrifugation, and FuGENE 6 transfection reagent (Roche Indianapolis Ind.) according to the manufacturer's recommended procedure. All cells, in 24-well plates, were treated with fresh media and shifted to 33° C. for 12 to 24 h prior to assay.
Competition Binding. Binding reactions were performed with HKRK-B28 cells or in COS-7 cells in 24-well plates. The cells were rinsed with 0.5 mL of binding buffer, and then treated successively with 100 μL binding buffer, 100 μL of binding buffer containing various amounts of unlabeled competitor ligand, and 100 μL of binding buffer containing ca. 100,000 cpm of ^125I-[Aib^1,3,Nle^8,Gln^10,Har^11,Ala^12,Trp^14,Arg^19,Tyr^21]rPTH(1-21) (SEQ. ID. NO. 36) (ca. 26 fmol; final volume=300 μL). Incubations were 4 to 6 h at 4° C., at which time near equilibrium conditions were attained. Cells were then placed on ice, the binding medium was removed, and the monolayer was rinsed three times with 0.5 mL of cold binding buffer. The cells were subsequently lysed with 0.5 mL 5N NaOH and counted for radioactivity. For each tracer and in each experiment, the non-specific binding was determined as the radioactivity that bound in the presence of the same unlabeled peptide at a concentration of 1 μM, and was ˜1% of total radioactivity added for each tracer. The maximum specific binding (B0) was the total radioactivity bound in the absence of competing ligand, corrected for nonspecific binding, and for each tracer, ranged from 8% to 20% of the total radioactivity added. Nonlinear regression was used to calculate binding IC50 values (see below). Scatchard transformations of homologous competition binding data derived from studies with 26 fmol of ^125I-[Aib^1,3,Nle^8,Gln^10,Har^11,Ala^12,Trp^14, Arg^19,Tyr^21]rPTH(1-21) (SEQ. ID. NO. 36) were employed for estimations of apparent equilibrium dissociation constant (kDapps) and total number of ligand binding sites (Bmax), assuming a single class of binding sites and equal affinities of the iodinated and non iodinated ligand.
Data Calculation. Calculations were performed using Microsoft® Excel. Nonlinear regression analyses of binding and cAMP dose-response data were performed using the four-parameter equation: yp=Min+[(Max−Min)/(1+(IC50/x)^slope)]. The Excel Solver function was utilized for parameter optimization, as described previously (Carter, P. H., et al., Endocrinology 140: 4972-4981 (1999); Bowen, W. P., and Jerman, J. C., Trends in Pharmacol. Sci. 16: 413-417 (1995)). […]

[2] = system: P1R (recombinant P1R chimera) in HKRK-B28 cells; experiment: cAMP stimulation in HKRK-B28 cells; assay type: cell-based, opposum/rat chimera; conditions: for cAMP signaling potency diminished relative to parent [M]PTH(1-14) / cAMP-stimulating potency higher than that of parent [M]PTH(1-14): relative to parent [M]PTH(1-14)
Text: as §1
cAMP Stimulation. Stimulation of cells with peptide analogs was performed in 24-well plates. Cells were rinsed with 0.5 mL of binding buffer (50 mM Tris-HCl, 100 mM NaCl, 5 mM KCl, 2 mM CaCl2, 5% heat-inactivated horse serum, 0.5% fetal bovine serum, adjusted to pH 7.5 with HCl) and treated with 200 μL of cAMP assay buffer (Delbecco's modified Eagle's medium containing 2 mM 3-isobutyl-1-methylxanthine, 1 mg/mL bovine serum albumin, 35 mM Hepes-NaOH, pH 7.4) and 100 μL of binding buffer containing varying amounts of peptide analog (final volume=300 μL). The medium was removed after incubation for 30 to 60 minutes at room temperature, and the cells were frozen on dry ice, lysed with 0.5 mL 50 mM HCl, and refrozen ([…]). The cAMP content of the diluted lysate was determined by radioimmunoassay. The EC50 response values were calculated using nonlinear regression (see below).
Data Calculation. Calculations were performed using Microsoft® Excel. Nonlinear regression analyses of binding and cAMP dose-response data were performed using the four-parameter equation: yp=Min+[(Max−Min)/(1+(IC50/x)^slope)]. The Excel Solver function was utilized for parameter optimization, as described previously (Carter, P. H., et al., Endocrinology 140: 4972-4981 (1999); Bowen, W. P., and Jerman, J. C., Trends in Pharmacol. Sci. 16: 413-417 (1995)). Differences between paired data sets were statistically evaluated using a one-tailed Student's t-test, assuming unequal variances for the two sets.

[3] = relative to parent [M]PTH(1-14)

T1 sequence (P25107+P25961 fused with the stated changes): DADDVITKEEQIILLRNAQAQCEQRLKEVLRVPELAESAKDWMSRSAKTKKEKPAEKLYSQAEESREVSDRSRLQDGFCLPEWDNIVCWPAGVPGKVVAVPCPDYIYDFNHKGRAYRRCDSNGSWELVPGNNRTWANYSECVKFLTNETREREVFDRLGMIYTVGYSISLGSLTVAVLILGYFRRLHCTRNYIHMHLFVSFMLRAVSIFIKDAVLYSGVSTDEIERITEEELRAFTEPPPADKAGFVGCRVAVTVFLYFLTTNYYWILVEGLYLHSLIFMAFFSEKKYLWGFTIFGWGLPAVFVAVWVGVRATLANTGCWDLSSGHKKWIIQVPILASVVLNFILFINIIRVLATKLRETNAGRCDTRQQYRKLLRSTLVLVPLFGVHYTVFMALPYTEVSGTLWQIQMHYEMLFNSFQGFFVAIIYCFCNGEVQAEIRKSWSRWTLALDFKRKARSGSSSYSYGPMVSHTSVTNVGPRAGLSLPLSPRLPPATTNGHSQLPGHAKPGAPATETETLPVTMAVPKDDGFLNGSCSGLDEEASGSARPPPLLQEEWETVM

## CC[C@H](C)[C@H](NC(=O)[C@H](CCC(=O)O)NC(=O)C1(NC(=O)[C@@H](NC(=O)[C@H](C)N)C(C)C)CCCC1)C(=O)N[C@@H](CCC(N)=O)C(=O)N[C@@H](CC(C)C)C(=O)N[C@@H](CCSC)C(=O)N[C@@H](Cc1c[nH]cn1)C(=O)N[C@@H](CCC(N)=O)C(=O)N[C@@H](CCCCNC(=N)N)C(=O)N[C@@H](C)C(=O)N[C@@H](CCCCN)C(=O)N[C@@H](Cc1c[nH]c2ccccc12)C(N)=O [Ac5c^3] (H-AV[Ac5c]EIQLMHQ[hArg]AKW-NH2)
[1]
  IC50: ~3000 nM

## CC[C@H](C)[C@H](NC(=O)[C@H](CCC(=O)O)NC(=O)C(CC)(CC)NC(=O)[C@@H](NC(=O)[C@H](C)N)C(C)C)C(=O)N[C@@H](CCC(N)=O)C(=O)N[C@@H](CC(C)C)C(=O)N[C@@H](CCSC)C(=O)N[C@@H](Cc1c[nH]cn1)C(=O)N[C@@H](CCC(N)=O)C(=O)N[C@@H](CCCCNC(=N)N)C(=O)N[C@@H](C)C(=O)N[C@@H](CCCCN)C(=O)N[C@@H](Cc1c[nH]c2ccccc12)C(N)=O [Deg-3] (H-AV[Deg]EIQLMHQ[hArg]AKW-NH2)
[2]
  cAMP signaling potency diminished relative to parent [M]PTH(1-14): approximately 10 fold
[2]; listed as Deg^3
  cAMP signaling potency diminished relative to parent [M]PTH(1-14): ~40 fold
[1]
  IC50: ~3000 nM
  P1R binding affinity (in words): little or no effect on binding affinity
[1]; [3]
  binding affinity higher than that of parent [M]PTH(1-14): around 1.5 fold

## CC[C@H](C)[C@H](NC(=O)[C@H](CCC(=O)O)NC(=O)C(C)(C)NC(=O)[C@@H](NC(=O)C1(N)CCCC1)C(C)C)C(=O)N[C@@H](CCC(N)=O)C(=O)N[C@@H](CC(C)C)C(=O)N[C@@H](CCSC)C(=O)N[C@@H](Cc1c[nH]cn1)C(=O)N[C@@H](CCC(N)=O)C(N)=O [[Ac5c^1,Aib^3,M]PTH(1-10), [Ac5c^1,Aib^3,Gln^10]PTH(1-10)NH2] (H-[Ac5c]V[Aib]EIQLMHQ-NH2)
[2]; HKRK-B28 cells, peptide at 10 μM
  increase in cAMP levels relative to basal: 33 fold
[2]; HKRK-B28 cells, read-out: cAMP EC50 estimated from dose-response analysis
  EC50: ~3000 nM
[2]
  cAMP agonist activity / signaling potency (in words): clear cAMP response
[2]; Aib^3, Gln^10]PTH(1-10)
  cAMP agonist activity / signaling potency (in words): fall cAMP agonist, albeit with micromolar potency
[1]; concentrations as high as 1×10^−4M, HKRK-B28 cells
  inhibition of tracer radioligand binding: neither peptide inhibited the binding

## CC[C@H](C)[C@H](NC(=O)[C@H](CCC(=O)O)NC(=O)[C@H](C)NC(=O)[C@@H](NC(=O)[C@H](C)N)C(C)C)C(=O)N[C@@H](CCC(N)=O)C(=O)N[C@@H](CC(C)C)C(=O)N[C@@H](CCSC)C(=O)N[C@@H](Cc1c[nH]cn1)C(=O)N[C@@H](CCC(N)=O)C(=O)N[C@@H](CCCCNC(=N)N)C(=O)N[C@@H](C)C(=O)N[C@@H](CCCCN)C(=O)N[C@@H](Cc1c[nH]c2ccccc12)C(N)=O [[M]PTH(1-14), [Ala^1,3,12,Gln^10,Har^11,Trp^14]PTH(1-14)NH2, reference compound] (H-AVAEIQLMHQ[hArg]AKW-NH2)
[2]; HKRK-B28 cells, intracellular cAMP accumulation, listed as [Ala^1,3,12,Gln^10,Har^11,Trp^14]PTH(1-14)NH2, read-out: cAMP-stimulating potency (EC50)
  EC50: 220 ± 80 nM
[2]; HKRK-B28 cells, intracellular cAMP accumulation, read-out: cAMP-stimulating potency (EC50)
  EC50: 200 nM
[2]; HKRK-B28 cells, n=7
  maximum cAMP response: 225±21 picomoles of cAMP per well

## CC[C@H](C)[C@H](NC(=O)[C@H](CCC(=O)O)NC(=O)[C@H](C)NC(=O)[C@@H](NC(=O)[C@H](C)N)C(C)C)C(=O)N[C@@H](CCC(N)=O)C(=O)N[C@@H](CC(C)C)C(=O)N[C@@H](CCSC)C(=O)N[C@@H](Cc1cnc[nH]1)C(=O)N[C@@H](CCC(N)=O)C(=O)N[C@@H](CCCCN=C(N)N)C(=O)N[C@@H](C)C(=O)N[C@@H](CCCCN)C(=O)N[C@@H](Cc1c[nH]c2ccccc12)C(N)=O [[M]PTH(1-14), [Ala^1,3,12,Gln^10,Har^11,Trp^14]PTH(1-14)NH2, reference compound] (H-AVAEIQLMHQ[hArg]AKW-NH2)
[1]
  IC50: ~3000 nM and 600 nM

## Ac3c-3: parent [M]PTH(1-14) analog in which alanine-3 was substituted with 1-aminocyclopropane-1-carboxylic acid (Ac3c)
[2]
  cAMP-stimulating potency higher than that of parent [M]PTH(1-14): < two
[1]; [3]
  binding affinity lower than that of parent [M]PTH(1-14): approximately 10 fold

## Ac5c-3: parent [M]PTH(1-14) analog in which alanine-3 was substituted with 1-aminocyclopentane-1-carboxylic acid (Ac5c)
[2]
  cAMP-stimulating potency higher than that of parent [M]PTH(1-14): < two
[1]
  P1R binding affinity (in words): little or no effect on binding affinity

## [Ac3c^1,3,Gln^10,Har^11,Ala^12,Trp^14]PTH(1-14)NH2 ([Ac3c]V[Ac3c]EIQLMHQ[hArg]AKW-NH2) [[Ac3c^1,3,M]PTH(1-14)]
[2]
  cAMP agonist activity / signaling potency (in words): comparable to the parent peptide
[1]
  P1R binding affinity (in words): comparable to the parent peptide

## [Aib^1,3,Gln^10]PTH(1-10)NH2 ([Aib]V[Aib]EIQLMHQ-NH2; N-terminus assumed; SMILES CC[C@H](C)[C@H](NC(=O)[C@H](CCC(=O)O)NC(=O)C(C)(C)NC(=O)[C@@H](NC(=O)C(C)(C)N)C(C)C)C(=O)N[C@@H](CCC(N)=O)C(=O)N[C@@H](CC(C)C)C(=O)N[C@@H](CCSC)C(=O)N[C@@H](Cc1c[nH]cn1)C(=O)N[C@@H](CCC(N)=O)C(N)=O) [ID; NO; 35]
[2]; HKRK-B28 cells, peptide at 1×10^−4M
  increase in cAMP levels relative to basal: two
[2]; P1R-transfected cells
  activity / cAMP response in cell-based assays (in words): measurable cAMP responses can be detected

## native PTH(1-9): native PTH(1-9) (SEQ. ID. NO. 33) (SVSEIQLMH-NH2) [reference compound]
[2]; peptide at 10^−4M
  cAMP agonist activity at single high concentration (in words): inactive
